This is an account of results in patent US6423109B1, “Free flowing fertilizer composition with enhanced deposition/anti drift characteristics” (Adjuvants Unlimited Inc., priority 2000, dated 2002).

This data set is described as follows: Gel formation (% +50 mesh gel bound). The format is physicochemical. The following applies: tap water at 1% dilution.

SMILES strings stand for the structures.

Take `N.N.O=S(=O)(O)O` [Ammonium Sulfate (AMS), Ammonium Sulfate]: the “% +50 mesh gel bound” value is given as 0%.
